Read-outs that look alike come from different tables or passages of the source.

One data set deals with T1, OR14J1 (Homo sapiens, UniProt Q9UGF5).
T1 construct: expressed in transfected cells; host or cells: HEK293T stably expressing human RTP1S(V227I) and RTP2(L220R) (general method)
Kind of data set: Activation of modified OR14J1 (SEQ ID NO: 221), library hit and dose-response. It counts as cell-based. The settings on record: SEQ ID 221. As for the experimental part:
Parallel transfection experiments were conducted with all these plasmids (n = 408) and cells expressing the different OR were stimulated with one given ligand at a time, tested at the maximal, clearly non-cytotoxic concentration. In total 26 different ligands were tested on the full library of class II receptors.
Table 16. Ligands tested on the full library of OR and cognate receptors identified for these ligands

Data set [1] concerns the target T2, OR52E8 (Homo sapiens, UniProt Q6IFG1).
T2 construct: expressed in transfected cells; host or cells: HEK293T stably expressing human RTP1S(V227I) and RTP2(L220R)
Kind of data set: cell-based. It is filed as cell-based. The settings on record: read-out: Potency EC50. An excerpt:
(§1) To create an expression plasmid, an OR coding sequence fused at the end of TM7 to the desired C-terminus sequence was synthesized by a DNA synthesis service provider (BioCat GmbH, Germany) and inserted into pcDNA3.1(+) (Invitrogen, MA, USA) downstream of the CMV promoter sequence (SEQ ID NO: 82) using BamHI and Notl restriction sites. All the synthetic OR nucleotide sequences described below in Examples 1-15 further contained at their N-terminus a nucleotide sequence encoding a signal peptide (mmLucy-FLAG-rho, SeQ ID NOs: 80, 81) and at the C-terminus the bgh terminator sequence (SEQ ID NO: 83). All the OR expression plasmids also contain a Kozak sequence (GCCACC) between the BamHI restriction site and the start codon of the signal peptide. These plasmids thus contain a constitutively expressed OR gene.

For data set [2], the system named is OR52E8. Kind of data set: cell-based. It is filed as cell-based, human.
Description: as §1

Another data set addresses T3, OR10J5 (Homo sapiens, UniProt Q8NHC4).
T3 construct: expressed in transfected cells; host or cells: HEK293T cells stably expressing human RTP1S (V227I) and RTP2 (L220R)
T3 sequence (Q8NHC4 with tags, fused parts or gaps): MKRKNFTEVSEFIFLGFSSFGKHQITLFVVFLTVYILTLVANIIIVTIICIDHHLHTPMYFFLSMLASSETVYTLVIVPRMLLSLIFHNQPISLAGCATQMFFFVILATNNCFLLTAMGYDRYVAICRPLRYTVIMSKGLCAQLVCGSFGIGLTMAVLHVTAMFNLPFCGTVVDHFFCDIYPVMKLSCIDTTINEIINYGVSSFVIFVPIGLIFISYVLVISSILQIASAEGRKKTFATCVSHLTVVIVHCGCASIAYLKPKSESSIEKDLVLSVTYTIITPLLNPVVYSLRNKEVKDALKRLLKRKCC
Kind of data set: OR10J5 (SEQ ID NO: 86) dose-response of isomers, EC20% relative to positive control. It is filed as cell-based. The following applies: 20 % of positive control (100µM Mahonial); OR10J5 with SEQ ID NO: 86. An excerpt: Once a strong ligand is known for a given OR and the concentration of that ligand for maximal OR activation, this ligand (tested at its maximal inducing concentration) can be introduced as a positive control into the experiment, and fold-luciferase can be reported as % activation of the positive control according to the following formula: % activation = (Fold luciferase activation test compound−1)/(Fold luciferase activation positive control−1) × 100 [formula]
Activation of OR10J5 with the C-terminal domain of SEQ ID NO: 86 by (S,E)-10-hydroxy-4,8-dimethyldec-4-enal or (R,E)-10-hydroxy-4,8-dimethyldec-4-enal was measured in a dose-response analysis.
Potency of the two tested OR10J5 ligands is expressed as the EC20% value, which is the concentration that leads to a 20 % increase of the luciferase activity relative to the positive control (100µM, Mahonial; (4E)-9-hydroxy-5,9-dimethyl-4-Decenal). […] Because of the difference in EC20%, a much lower concentration of the (S,E)-isomer is needed to activate the receptor compared to the concentration needed of the (R,E)-isomer. […] This example further illustrates the usefulness of the improved assay to determine the most odor-active isomers.

Data set [3] deals with T4, OR5A1 (Homo sapiens, UniProt Q8NGJ0).
T4 construct: expressed in transfected cells; host or cells: HEK293T cells stably expressing human RTP1S (V227I) and RTP2 (L220R)
Kind of data set: Luciferase dose-response, wild-type vs changed C-terminus (SEQ ID NO: 86). It counts as cell-based.

In data set [4] the target is T5, OR5A1 (Homo sapiens, UniProt Q8NGJ0, I300V).
T5 construct: expressed in transfected cells; host or cells: HEK293T cells stably expressing human RTP1S (V227I) and RTP2 (L220R)
T5 sequence (Q8NGJ0 with tags, fused parts or gaps I300V): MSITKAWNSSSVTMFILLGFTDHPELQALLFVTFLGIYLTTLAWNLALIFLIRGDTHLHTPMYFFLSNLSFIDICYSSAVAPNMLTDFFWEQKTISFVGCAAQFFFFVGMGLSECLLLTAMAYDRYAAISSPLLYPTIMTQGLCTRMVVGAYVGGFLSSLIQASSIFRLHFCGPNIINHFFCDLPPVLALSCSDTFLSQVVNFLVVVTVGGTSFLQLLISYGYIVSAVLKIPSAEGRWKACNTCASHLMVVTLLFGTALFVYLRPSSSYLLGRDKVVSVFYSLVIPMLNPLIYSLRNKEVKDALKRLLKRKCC
Described as above. It is filed as cell-based.

In data set [5] the test system is OR5A1. Described as above. It counts as cell-based, human.

T1 sequence (Q9UGF5 with tags, fused parts or gaps): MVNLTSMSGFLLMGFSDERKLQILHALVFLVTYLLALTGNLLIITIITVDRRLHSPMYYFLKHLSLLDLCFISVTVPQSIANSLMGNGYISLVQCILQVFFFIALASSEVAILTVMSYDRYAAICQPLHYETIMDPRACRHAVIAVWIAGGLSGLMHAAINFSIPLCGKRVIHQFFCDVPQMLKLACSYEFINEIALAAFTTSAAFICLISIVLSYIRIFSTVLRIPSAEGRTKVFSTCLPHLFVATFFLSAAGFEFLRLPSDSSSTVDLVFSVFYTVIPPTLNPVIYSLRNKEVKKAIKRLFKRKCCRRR

`CC(C)(O)[Si](C1CC1)(C1CC1)C1CC1` [2-(tricyclopropylsilyl)propan-2-ol]: at OR14J1, the “activation of OR14J1” value is on record as “activate OR14J1”.
For `CCCC(C)(O)CC(=O)O` (stereo not drawn) [3-Methyl-3-Hydroxy-Hexanoic acid], on OR52E8 [1] (changed C-term SEQ ID NO: 86), the 50% effective concentration (EC50) was 69 µM. The EC50 at OR52E8 [1] (wild-type) is greater than 316 µM. Further, in the data set with OR52E8 [2], the Comments on efficacy result is on record as “No induction wild-type”, the Fold-improvement potency is given as >>5 and the Fold-improvement threshold is >>5.
Consider `C/C(=C\CC[C@@H](C)CCO)CCC=O` [(R,E)-10-hydroxy-4,8-dimethyldec-4-enal], for which, at OR10J5, the EC20% is recorded as 24.4 µM.
In turn, `C/C(=C\CC[C@H](C)CCO)CCC=O` [(S,E)-10-hydroxy-4,8-dimethyldec-4-enal] came in with an EC20% on OR10J5 of 10.1 µM.
The compound `CC(=O)/C=C/C1=C(C)CCCC1(C)C` [Beta-ionone] yielded an EC50 on OR5A1 [3] of 5.5 µM. The “Detection threshold; concentration for 2-fold induction” value at OR5A1 [3] (wild-type) is 19.1 µM. The EC50 at OR5A1 [4] stood at 3.1 µM. Moreover, on OR5A1 [4] (changed C-term. SEQ ID NO: 86), the “Detection threshold; concentration for 2-fold induction” value is 3.2 µM. Further, in the data set on OR5A1 [5], the Comments on efficacy is reported as 4-fold lower maximal induction for wild-type, the Fold-improvement potency worked out at 1.8 and the Fold-improvement threshold was found to be 5.9.

The values are drawn from EP4664463A1, “COMPUTER-IMPLEMENTED METHOD FOR OLFACTORY PROPERTY PREDICTION” (Givaudan SA, priority 2024, dated 2025).
